Among the data in ChEMBL document CHEMBL3044578, “Synthesis, insecticidal activity, and molecular docking studies of nitenpyram analogues with a flexible ester arm anchored on tetrahydropyrimidine ring” (2011) are mortality and LC50 values, retold here.

Values after ≈ are worked out from the molar mass of the structure shown.

Common to all, as to assay type: functional
Experiment [1] has as its system Nilaparvata lugens. Kind of experiment: Insecticidal activity against Nilaparvata lugens (brown planthopper) assessed as mortality at 20 mg/l after 72 hr.
The subject of experiment [2] is Nilaparvata lugens. Nature of the experiment: Insecticidal activity against Nilaparvata lugens (brown planthopper) assessed as mortality at 100 mg/l after 72 hr.
Experiment [3] deals with Nilaparvata lugens. Nature of the experiment: Insecticidal activity against Nilaparvata lugens (brown planthopper) assessed as mortality at 500 mg/l after 72 hr.
The test system of experiment [4] is Nilaparvata lugens. Nature of the experiment: Insecticidal activity against Nilaparvata lugens (brown planthopper) assessed as mortality after 72 hr.

Usually mortality stands for the share of the test organisms that died. Turning to `CCN(Cc1ccc(Cl)nc1)C1=C([N+](=O)[O-])CN(CCCC(=O)OC)CN1C`, the mortality at 20 µg/mL in the experiment on Nilaparvata lugens [1] came out at 79%. Moreover, the mortality at 100 µg/mL with Nilaparvata lugens [2] came to 100%. The mortality at 500 µg/mL in the experiment on Nilaparvata lugens [3] came out at 100%.
Consider `CCOC(=O)CCCN1CC([N+](=O)[O-])=C(N(CC)Cc2ccc(Cl)nc2)N(C)C1`, for which the mortality at 20 µg/mL with Nilaparvata lugens [1] worked out at 85%. For the same molecule, in the experiment with Nilaparvata lugens [2], the mortality at 100 µg/mL came to 100%. Also, the mortality at 500 µg/mL in the experiment with Nilaparvata lugens [3] came out at 100%.
For the molecule `CCN(Cc1ccc(Cl)nc1)C1=C([N+](=O)[O-])CN(CC(=O)OC)CN1C`, in the experiment with Nilaparvata lugens [1], the mortality at 20 µg/mL turned out to be 86%. Also, the mortality at 100 µg/mL in the experiment on Nilaparvata lugens [2] was 94%. Moreover, the mortality at 500 µg/mL with Nilaparvata lugens [3] worked out at 100%.
The matching figures for `CCC(C)OC(=O)CN1CC([N+](=O)[O-])=C(N(CC)Cc2ccc(Cl)nc2)N(C)C1` (configuration not stated): 53%, 79% and 100%.
The matching figures for `CCC(C)OC(=O)CCCN1CC([N+](=O)[O-])=C(N(CC)Cc2ccc(Cl)nc2)N(C)C1` (configuration not stated): 59%, 93% and 100%.
As a reminder, the LC50 is the concentration that kills 50% of the test population. In the case of `CCCOC(=O)CCN1CC([N+](=O)[O-])=C(N(CC)Cc2ccc(Cl)nc2)N(C)C1`, the LC50 in the experiment with Nilaparvata lugens [4] is 0.194 µg/mL (≈ 0.455 µM). Further, the mortality at 20 µg/mL in the experiment with Nilaparvata lugens [1] was determined as 100%. Also, in the experiment on Nilaparvata lugens [2], the mortality at 100 µg/mL turned out to be 100%. Moreover, the mortality at 500 µg/mL with Nilaparvata lugens [3] was 100%.
On to `CCOC(=O)CN1CC([N+](=O)[O-])=C(N(CC)Cc2ccc(Cl)nc2)N(C)C1`, for which the mortality at 20 µg/mL with Nilaparvata lugens [1] turned out to be 94%. Moreover, in the experiment with Nilaparvata lugens [2], the mortality at 100 µg/mL turned out to be 100%. For the same molecule, in the experiment on Nilaparvata lugens [3], the mortality at 500 µg/mL amounted to 100%.
Take `CCN(Cc1ccc(Cl)nc1)C1=C([N+](=O)[O-])CN(CCC(=O)OC(C)(C)C)CN1C`: in the experiment with Nilaparvata lugens [1], the mortality at 20 µg/mL turned out to be 66%. The mortality at 100 µg/mL in the experiment on Nilaparvata lugens [2] came out at 81%. In addition, the mortality at 500 µg/mL with Nilaparvata lugens [3] amounted to 100%.
The matching figures for `CCN(Cc1ccc(Cl)nc1)C1=C([N+](=O)[O-])CN(CCC(=O)OCC(C)C)CN1C`: 52%, 100% and 100%.
Consider `CCN(Cc1ccc(Cl)nc1)C1=C([N+](=O)[O-])CN(CC(=O)OC(C)(C)C)CN1C`, for which, in the experiment on Nilaparvata lugens [1], the mortality at 20 µg/mL amounted to 47%. Further, the mortality at 100 µg/mL in the experiment with Nilaparvata lugens [2] was 73%. The mortality at 500 µg/mL in the experiment with Nilaparvata lugens [3] came to 100%.
The matching figures for `CCCCOC(=O)CN1CC([N+](=O)[O-])=C(N(CC)Cc2ccc(Cl)nc2)N(C)C1`: 67%, 75% and 100%.
As for `O=[N+]([O-])/N=C1\NCCN1Cc1ccc(Cl)nc1` [IMIDACLOPRID], the LC50 in the experiment on Nilaparvata lugens [4] was determined as 0.108 µg/mL (≈ 0.422 µM). Besides, the mortality at 20 µg/mL in the experiment with Nilaparvata lugens [1] was found to be 100%. Besides, the mortality at 100 µg/mL with Nilaparvata lugens [2] amounted to 100%. Besides, the mortality at 500 µg/mL with Nilaparvata lugens [3] worked out at 100%.
`CCC(C)OC(=O)CCN1CC([N+](=O)[O-])=C(N(CC)Cc2ccc(Cl)nc2)N(C)C1` (configuration not stated): the mortality at 20 µg/mL in the experiment with Nilaparvata lugens [1] is 84%. Also, in the experiment with Nilaparvata lugens [2], the mortality at 100 µg/mL was found to be 100%. Also, in the experiment with Nilaparvata lugens [3], the mortality at 500 µg/mL was 100%.
As for `CCCOC(=O)CN1CC([N+](=O)[O-])=C(N(CC)Cc2ccc(Cl)nc2)N(C)C1`, the mortality at 20 µg/mL in the experiment on Nilaparvata lugens [1] is 73%. Besides, the mortality at 100 µg/mL in the experiment on Nilaparvata lugens [2] amounted to 96%. Also, in the experiment with Nilaparvata lugens [3], the mortality at 500 µg/mL is 100%.
As for `CCCOC(=O)CCCN1CC([N+](=O)[O-])=C(N(CC)Cc2ccc(Cl)nc2)N(C)C1`, the mortality at 20 µg/mL in the experiment with Nilaparvata lugens [1] stood at 43%. Further, the mortality at 100 µg/mL in the experiment with Nilaparvata lugens [2] was found to be 100%. Further, in the experiment on Nilaparvata lugens [3], the mortality at 500 µg/mL stood at 100%.
Turning to `CCN(Cc1ccc(Cl)nc1)C1=C([N+](=O)[O-])CN(CCC(=O)OC)CN1C`, in the experiment on Nilaparvata lugens [1], the mortality at 20 µg/mL came out at 95%. For the same molecule, the mortality at 100 µg/mL with Nilaparvata lugens [2] was 100%. Besides, the mortality at 500 µg/mL in the experiment on Nilaparvata lugens [3] worked out at 100%.
Turning to `CCOC(=O)CCN1CC([N+](=O)[O-])=C(N(CC)Cc2ccc(Cl)nc2)N(C)C1`, in the experiment on Nilaparvata lugens [1], the mortality at 20 µg/mL came out at 93%. In addition, the mortality at 100 µg/mL with Nilaparvata lugens [2] was found to be 100%. Moreover, the mortality at 500 µg/mL in the experiment with Nilaparvata lugens [3] amounted to 100%.
Turning to `CCN(Cc1ccc(Cl)nc1)C1=C([N+](=O)[O-])CN(CCC(=O)OC(C)C)CN1C`, the LC50 with Nilaparvata lugens [4] worked out at 0.162 µg/mL (≈ 0.38 µM). For the same molecule, the mortality at 20 µg/mL in the experiment on Nilaparvata lugens [1] was determined as 100%. Further, in the experiment with Nilaparvata lugens [2], the mortality at 100 µg/mL amounted to 100%. The mortality at 500 µg/mL in the experiment with Nilaparvata lugens [3] was determined as 100%.
As to `CCN(Cc1ccc(Cl)nc1)C1=C([N+](=O)[O-])CN(CC(=O)OCC(C)C)CN1C`, in the experiment on Nilaparvata lugens [1], the mortality at 20 µg/mL came out at 68%. Further, in the experiment with Nilaparvata lugens [2], the mortality at 100 µg/mL is 100%. Further, in the experiment with Nilaparvata lugens [3], the mortality at 500 µg/mL came out at 100%.
Take `CCN(Cc1ccc(Cl)nc1)/C(=C/[N+](=O)[O-])NC` [NITENPYRAM]: the median lethal concentration (LC50) in the experiment with Nilaparvata lugens [4] worked out at 0.129 µg/mL (≈ 0.477 µM). In addition, the mortality at 20 µg/mL in the experiment on Nilaparvata lugens [1] turned out to be 100%. In addition, the mortality at 100 µg/mL in the experiment with Nilaparvata lugens [2] was determined as 100%. In the experiment on Nilaparvata lugens [3], the mortality at 500 µg/mL is 100%.
Turning to `CCCCOC(=O)CCN1CC([N+](=O)[O-])=C(N(CC)Cc2ccc(Cl)nc2)N(C)C1`, the mortality at 20 µg/mL in the experiment on Nilaparvata lugens [1] turned out to be 78%. Moreover, the mortality at 100 µg/mL with Nilaparvata lugens [2] was 92%. The mortality at 500 µg/mL in the experiment with Nilaparvata lugens [3] was 100%.
For `CCCCOC(=O)CCCN1CC([N+](=O)[O-])=C(N(CC)Cc2ccc(Cl)nc2)N(C)C1` the same measures were 82%, 100% and 100%.
`CCN(Cc1ccc(Cl)nc1)C1=C([N+](=O)[O-])CN(CC(=O)OC(C)C)CN1C`: the mortality at 20 µg/mL in the experiment with Nilaparvata lugens [1] came out at 76%. The mortality at 100 µg/mL in the experiment on Nilaparvata lugens [2] worked out at 85%. The mortality at 500 µg/mL in the experiment on Nilaparvata lugens [3] was 100%.
For `CCN(Cc1ccc(Cl)nc1)C1=C([N+](=O)[O-])CN(CCCC(=O)OC(C)(C)C)CN1C` the same measures were 36%, 68% and 100%.
The matching figures for `CCN(Cc1ccc(Cl)nc1)C1=C([N+](=O)[O-])CN(CCCC(=O)OC(C)C)CN1C`: 58%, 100% and 100%.
For `CCN(Cc1ccc(Cl)nc1)C1=C([N+](=O)[O-])CN(CCCC(=O)OCC(C)C)CN1C` the same measures were 54%, 100% and 100%.
